Assay results: patent US20050265997A1, “Cancer treatment method by inhibiting MAGE gene expression or function” (WISCONSIN ALUMNI RESEARCH FOUNDATION, priority 2004, published 2005)

What was measured:
Assay type in all cases: cell-based, human
[1] = test system: MAGE mRNA in HMC-1.1 cell; experiment: Genechip array analysis of MAGE mRNA after STI 571; details: HMC-1.1 cells, 1 μM STI571 for 4 hours, Means +/- SEM
Source text: (§1) The human mast cell line HMC-1 is dependent on the expression of mutant KIT protein which is constitutively activated, and inhibition of activated KIT with a drug induces apoptosis of HMC-1 cells (Ma et al., 2002, The c-KIT mutation causing human mastocytosis is resistant to STI571 and other KIT kinase inhibitors; kinases with enzymatic site mutations show different inhibitor sensitivity profiles than wild-type kinases and those with regulatory-type mutations. Blood 99:1741-4.). However, the mechanism by which KIT inhibitors cause apoptosis in these cells is unknown. To look for genes whose products could regulate and transduce KIT related signals controlling apoptosis, we used gene chip array analysis to study changes in the mRNA levels of specific genes following induction of apoptosis.
HMC-1.1 cells were divided into triplicate cultures of two groups: a control group treated with PBS, and an experimental group treated with 1 μM STI571, a KIT inhibitor for 4 hours. A quarter of the cells were used for Western blots to confirm the KIT inhibition, and the rest were used for total RNA isolation for genechip analysis. We used Affymetrix Genechip human Genome U133A chips. The arrays were hybridized and scanned and the data were analyzed using dChip analysis software. The statistical significance of differences in mRNA expression levels between STI571 treated and control cells were assessed by t-test based on data from three independent replicates. Values are expressed as Means +/−SEM, and p<0.05 was considered statistically significant.

[2] = test system: MAGE-A protein in HMC-1.1 cells; experiment: Western blot of MAGE-A protein after STI 571; details: 12 and 24 hours after administration of STI 571
HMC-1.1 cells = experiment: Induction of apoptosis by STI 571; details: following decrease of MAGE mRNA and protein
Source text: as §1

SMILES: Cc1ccc(NC(=O)c2ccc(CN3CCN(C)CC3)cc2)cc1Nc1nccc(-c2cccnc2)n1 [STI 571]
- mRNA level, melanoma antigen, family A, 1 (NM_004988) ([1]; three replicates, PBS control 757 ± 29): 562 ± 33
- mRNA level, melanoma antigen, family A, 12 (BC003408) ([1]; PBS control 513 ± 29): 410 ± 26
- mRNA level, melanoma antigen, family E, 1 (NM_016249) ([1]; PBS control 514 ± 13): 405 ± 21
- mRNA level, melanoma antigen, family A, 5 (AI200443) ([1]; PBS control 520 ± 28): 414 ± 28
- mRNA level, melanoma antigen, family A, 6 (U10691) ([1]; PBS control 896 ± 54): 712 ± 42
- mRNA level, melanoma antigen, family A, 3 (BC000340) ([1]; PBS control 977 ± 67): 779 ± 32
- MAGE-A protein level (Western blot) [2]: down-regulation of MAGE-A protein
- apoptosis of the cells (HMC-1.1 cells): followed by apoptosis of the cells
